Patent US10905672B2, “Combination of baclofen, acamprosate and medium chain triglycerides for the treatment of neurological disorders” (PHARNEXT, priority 2014, dated 2021)
“Also recorded” adds a separate entry of the source.

Columns and labels:
[1] = test system: Abeta 25-35 intoxicated mice; assay: Spontaneous alternation performance, Y-maze test (spatial working memory) after icv Abeta 25-35; type: in vivo, Swiss mice; details: tested day 7
Procedure: (§1) Male Swiss mice are used throughout the study. Animals are housed in plastic cages, with free access to laboratory chow and water, except during behavioral experiments, and kept in a regulated environment, under a 12 h light/dark cycle (light on at 8:00 a.m.). Experiments are carried out in a soundproof and air-regulated experimental room to which mice have been habituated at least 30 min before each experiment.
(§2) Drug(s) is/are administered daily by gavage (per os). The Abeta 25-35 peptide and scrambled Abeta 25-35 peptide (control) have been dissolved in sterile bidistilled water, and stored at −20° C. until use. The Abeta peptides are then administered intracerebroventricularly (icy). In brief, each mouse is anesthetized lightly with ether, and a gauge stainless-steel needle is inserted unilaterally 1 mm to the right of the midline point equidistant from each eye, at an equal distance between the eyes and the ears and perpendicular to the plane of the skull. Peptides or vehicle are delivered gradually within approximately 3 s. […] The administration site is checked by injecting Indian ink in preliminary experiments. Neither insertion of the needle nor injection of the vehicle has a significant influence on survival, behavioral responses or cognitive functions.
On day −1, i.e., 24 h before the Abeta 25-35 peptide injection, drugs, candidate combinations, baclofen acamprosate mix, or the vehicle solution are administered per os by gavage twice daily (at 8:00 a.m. and 6:00 p.m.), and caprylic triglyceride is administered per os by gavage once daily (at 8:00 a.m.).
On day 0 (at 10:00 a.m.), mice are injected icy with Abeta 25-35 peptide or scrambled Abeta 25-35 peptide (control) in a final volume of 3 μL (3 mM).
Between day 0 and day 7, drugs, drug combinations or the vehicle solution are administered per os by gavage once or twice daily (at 8:00 a.m. for caprylic triglyceride or at 8:00 a.m. and 6:00 p.m. for baclofen and acamprosate). As a positive control, one animal group receives donepezil (reference compound—1 mg/kg/day) per os by gavage in a single injection (at 8:00 a.m.). Drugs are solubilized in water and freshly prepared just before each gavage administration.
On day 7, all animals are tested for spontaneous alternation performance in the Y-maze test, an index of spatial working memory (short-term memory).
On day 7, all animals are tested for spontaneous alternation performance in the Y-maze, an index of spatial working memory. The Y-maze is made of grey polyvinylchloride. Each arm is 40 cm long, 13 cm high, 3 cm wide at the bottom, 10 cm wide at the top, and converges at an equal angle. Each mouse is placed at the end of one arm and allowed to move freely through the maze during an 8 min session. The series of arm entries, including possible returns into the same arm, are checked visually. An alternation is defined as entries into all three arms on consecutive occasions. The number of maximum alternations is therefore the total number of arm entries minus two and the percentage of alternation is calculated as (actual alternations/maximum alternations)×100. Parameters include the percentage of alternation (memory index) and total number of arm entries (exploration index). Animals that show an extreme behavior (alternation percentage <25% or >85% or number of arm entries <10) are discarded. Usually, this accounts for 0-5% of the animals. […]

[2] = test system: Abeta 25-35 intoxicated mice; assay: Step-through passive avoidance test (contextual long-term memory) after icv Abeta 25-35; type: in vivo, Swiss mice
Procedure: as §1
as §2, with “functions. […]” for “functions.”
On days 8 and 9, the contextual long-term memory of the animals is assessed using the step-through type passive avoidance procedure.
The apparatus is a two-compartment (15×20×15 cm high) box with one compartment being illuminated with white polyvinylchloride walls and the other compartment darkened with black polyvinylchloride walls and a grid floor. […] The step-through latency, that is, the latency spent to enter the darkened compartment, and the number of vocalizations is recorded. […] After 5 s the door is raised, and the step-through latency and the escape latency, i.e., the time spent to return into the white compartment, are recorded up to 300 s.

CC(=O)NCCCS(=O)(=O)O [acamprosate]
effect on working memory (percentage of alternation) compared to Abeta 25-35 intoxicated animals ([1]; acamprosate alone, 32 μg/kg/bid per os, FIG. 1-B): No significant effect; also recorded: does not improve working memory | effect on memory defects (step-through latency) compared to Abeta 25-35 intoxicated animals ([2]; acamprosate monotherapy, 32 μg/kg/bid per os, FIG. 2-B): does not provide any improvement

CCCCCCCC(=O)OCC(COC(=O)CCCCCCC)OC(=O)CCCCCCC [C8 MCT, caprylic triglyceride]
effect on working memory (percentage of alternation) compared to Abeta 25-35 intoxicated animals ([1]; caprylic triglyceride alone, 0.555, 1.66 and 5 g/kg/d per os once daily, FIG. 1-A): does not improve working memory | effect on working memory (percentage of alternation) compared to Abeta 25-35 intoxicated animals ([1]; caprylic triglyceride alone, 0.555, 1.66 and 5 g/kg/d per os once daily, FIG. 1-A, listed as caprylic triglyceride): No significant effect | effect on memory defects (step-through latency) compared to Abeta 25-35 intoxicated animals ([2]; C8 MCT alone, 0.555, 1.66 and 5 g/kg/d per os, FIG. 2-A): does not provide any statistically significant effect

NCC(CC(=O)O)c1ccc(Cl)cc1 (centres unmarked) [Baclofen, baclofen]
effect on working memory (percentage of alternation) compared to Abeta 25-35 intoxicated animals ([1]; baclofen alone, 480 μg/kg/bid per os, FIG. 1-B): does not improve working memory | effect on working memory (percentage of alternation) compared to Abeta 25-35 intoxicated animals ([1]; baclofen alone, 480 μg/kg/bid per os, FIG. 1-B, listed as baclofen): No significant effect | effect on memory defects (step-through latency) compared to Abeta 25-35 intoxicated animals ([2]; baclofen monotherapy, 480 μg/kg/bid per os, FIG. 2-B): does not provide any improvement
